Tests used:
[1] = system: Breast cancer cell line MCF-7 and blood cells (leucocytes and erythrocytes); assay: 2-NBDG incorporation observed visually under a fluorescence microscope; type: cell-based, human; details: sample 1, mixture of MCF-7 and blood cells, 37° C., 40 minutes
Method: From venous blood of a healthy person, a […] and precipitates were separated by centrifugation according to the conventional method. From the […], a leucocyte layer and an erythrocyte layer were partially collected, and then resuspended in PBS to prepare a leucocyte sample and a erythrocyte sample, respectively.
Breast cancer cell line MCF-7 (purchased from DS Pharma Biomedical Co., Ltd). was cultured at 37° C. with 5% (v/v) CO2 using α-MEM culture medium (Invitrogen, supplemented with 10% (v/v) FBS, 2 mM L-glutamine, 100 U/mL penicillin and 100 μg/mL streptomycin). Immediately before the test, the cells were harvested with 0.25% trypsin-EDTA and washed with PBS, thereby preparing a cancer cell line sample.
To each of 300 μL (4×10^5 cells/mL) of the cancer cell line, the blood cells (leucocytes and erythrocytes) or a mixture thereof was added 30 μL of 10 mM 2-[N-(7-nitrobenz-2-oxa-1,3-diazol-4-yl)amino]-2-deoxy-D-glucose (2-NBDG) (Wako Pure Chemical Industries, Ltd.) according to the description in Table 2, thereby preparing samples 1 to 7. These samples were then incubated at 37° C. for 40 minutes. To the sample to which 2-NBDG was not added, a corresponding amount of PBS was added instead of 2-NBDG.
After incubation, each sample was centrifuged at 2,000 rpm for 5 minutes (Hitachi Ltd.) to harvest the cells. To the harvested cells was added 10 μL of an anti-EpCAM antibody-PE (R&D systems), and the mixture was allowed to stand for 30 minutes in the cool and dark place.
After 30 minutes, the mixture was washed with 1,000 μL of PBS, and the cells were harvested by centrifugation at 2000 rpm for 5 minutes in accordance with the conventional method.
The harvested cells were resuspended in 50 μL of PBS, and the entire volume thereof was transferred to a 96-well plate, thereby preparing an observation sample.
Each of the observation samples was observed under a fluorescence microscope (Nikon Corp.), and an amount of 2-NBDG incorporated was visually observed.

[2] = system: human breast adenocarcinoma cells (MCF-7); assay: Fluorescence values of cell suspension reacted with aminolevulinic acid (i-densy); type: cell-based; details: 1 mM, 37° C.
Source text: In accordance with the conventional method, human breast adenocarcinoma cells (cell line name: MCF-7; DS Pharma Biomedical Co., Ltd.) in culture was harvested with trypsin (Invitrogen). The cancer cell suspension harvested was centrifuged, and the supernatant was removed. The cells were resuspended with Dulbecco's PBS (+) (Nissui Pharmaceutical Co., Ltd.) and centrifuged, and the supernatant was removed again.
The number of the cells was counted using a hemacytometer in accordance with the conventional method, and then 2.8×10^5 cells per sample was aliquoted. […]
The fluorescence values of the cell suspension were measured using an i-densy (ARKRAY, Inc) at 15 minutes, 30 minutes, 60 minutes and 90 minutes after the start of the reaction. Conditions for fluorescence value measurement are as follows: 40° C. in the temperature regulated and light-intensity mode, Gain “3”, LED1 (390±20 nm for excitation)—PD3 (642.5±57.5 nm for detection).
In FIG. 7, the vertical axis represents fluorescence values, and the horizontal axis represents the reaction time. The solid squares represent fluorescence values obtained from the sample using Dulbecco's PBS (−) containing no Mg and Ca ions. The solid triangles represent fluorescence values obtained from the sample using Dulbecco's PBS (+) containing Mg and Ca ions. […]

SMILES	fluorescence image of erythrocyte cell [1]	fluorescence intensity of the leucocyte cell image relative to the cancer cell [1]	observation of the cancer cell line in the fluorescence image ([1]; FIGS. 4 to 6)	reactivity of aminolevulinic acid (fluorescence values of the cell suspension) ([2]; 15 to 90 minutes, Dulbecco's PBS (+) containing Mg and Ca ions versus PBS (−), FIG. 7)	reactivity of aminolevulinic acid (fluorescence values of the cell suspension) ([2]; Dulbecco's PBS (+) with Mg and Ca ions plus 10 μM ENDO-PORTER, FIG. 8)
O=[N+]([O-])c1ccc(N[C@H]2C(O)O[C@H](CO)[C@@H](O)[C@@H]2O)c2nonc12 (stereo partly drawn) [2-NBDG, 2-[N-(7-nitrobenz-2-oxa-1,3-diazol-4-yl)amino]-2-deoxy-D-glucose]	not observed at all	equal to or less than half the fluorescence intensity of the cancer cell	clearly observed	–	–
NCC(=O)CCC(=O)O [aminolevulinic acid, 5-amino-4-oxopentanoic acid]	–	–	–	can be improved	further improves the reactivity

Reference: patent US9645154B2, “Method for detecting cancer cell” (ARKRAY, Inc., priority 2010, dated 2017)
